Assay: Plasma pharmacokinetics of rucaparib (LC-MS/MS, noncompartmental)
Details: human, plasma, po; for AUC(0-inf): AUCinf; for Tmax / Tmax at 14 days: median (minimum, maximum)
[1] = 36 mg, single oral dose 36 mg, day –5, geometric mean (CV%)
[2] = 48 mg, single oral dose 48 mg, day –5, geometric mean (CV%)
[3] = 72 mg, single oral dose 72 mg, day –5, geometric mean (CV%)
[4] = 80 mg, single oral dose 80 mg, day 1, geometric mean (CV%)
[5] = 80 mg, single oral dose 80 mg, day –5, geometric mean (CV%)
[6] = 120 mg, single oral dose 120 mg, day 1, geometric mean (CV%)
[7] = 120 mg, single oral dose 120 mg, day –5, geometric mean (CV%)
[8] = 180 mg, single oral dose 180 mg, day –5, geometric mean (CV%)
[9] = 240 mg, single oral dose 240 mg, day 1, geometric mean (CV%)
[10] = 240 mg, single oral dose 240 mg, day –5, geometric mean (CV%)
[11] = 360 mg, single oral dose 360 mg, day 1, geometric mean (CV%)
[12] = 360 mg, single oral dose 360 mg, day –5, geometric mean (CV%)

Protocol: On cycle 1 days −10, −5, 1, and 14, plasma samples were obtained from all patients before rucaparib dosing and at 15 and 30 min, and at 1, 1.5, 2.5, 4, 6, 10, and 24 h after the start of the rucaparib administration (i.v. infusion (day −10) or oral (days −5, 1, and 14)). On cycle 1 days −10 and −5, samples were also obtained 48 h after the start of rucaparib administration. Rucaparib concentration was determined using liquid chromatography with tandem mass spectrometry.
Plasma clearance or apparent plasma clearance and steady-state volume of distribution were calculated for rucaparib. The oral bioavailability of rucaparib was calculated as the ratio of dose-normalised AUC0–t or AUCinf (data permitting) determined using oral rucaparib PK data collected on cycle 1 day −5 to that determined using the i.v. PK data collected on cycle 1 day −10. Pharmacokinetic parameters were summarised with the geometric mean and the coefficient of variation (CV). The ratio of Cmax and AUC0–24 of rucaparib administered in combination with chemotherapies to those of rucaparib alone was calculated and summarised, with mean and CV% to evaluate the effect of chemotherapies on the PK of rucaparib for both the i.v. dose (day −10) and oral dose (day −5).
The oral bioavailability of rucaparib was calculated as the ratio of dose-normalised AUC0-t or AUCinf (data permitting) determined using oral rucaparib PK data collected on cycle 1 day –5 to that determined using the intravenous PK data collected on cycle 1 day –10. The tmax was summarised with medians and ranges. The accumulation ratio after multiple oral rucaparib dosing (once daily) was assessed as the ratio of the AUC0-24 determined using PK collected on cycle 1 day 14 to the AUC0-24 after the cycle 1 day –5 lead-in dose. The ratio of the Cmax on day 14 to the Cmax on day –5 was also calculated. Additionally, the ratio of the AUC0-24 on cycle 1 day 14 to the AUCinf after the cycle 1 day –5 lead-in dose was calculated as an indication for any time-dependent change in rucaparib PK.

CNCc1ccc(-c2[nH]c3cc(F)cc4c3c2CCNC4=O)cc1 [rucaparib]
AUC(0-inf) [1]: 1100 ng·h/mL
Cmax [1]: 90 ng/mL
Tmax (36 mg, single oral dose 36 mg, day –5): 2 h
bioavailability (48 mg): 33.6%
AUC(0-t) (48 mg, AUC0-24, single oral dose 48 mg, day –5, geometric mean (CV%)): 620 ng·h/mL
AUC(0-inf) [2]: 922 ng·h/mL
Cmax [2]: 80 ng/mL
Tmax (48 mg, single oral dose 48 mg, day –5): 1.25 h
bioavailability (72 mg): 30.1%
AUC(0-t) (72 mg, AUC0-24, single oral dose 72 mg, day –5, geometric mean (CV%)): 893 ng·h/mL
AUC(0-inf) [3]: 1090 ng·h/mL
Cmax [3]: 108 ng/mL
Tmax (72 mg, single oral dose 72 mg, day –5): 2 h
bioavailability (80 mg): 30.7%
AUC(0-t) (80 mg, AUC0-24, oral 80 mg q.d. for 14 days, n = 1): 2210 ng·h/mL
AUC(0-t) (80 mg, AUC0-24, single oral dose 80 mg, day 1, geometric mean (CV%)): 1380 ng·h/mL
AUC(0-t) (80 mg, AUC0-24, single oral dose 80 mg, day –5, geometric mean (CV%)): 1270 ng·h/mL
AUC(0-inf) [4]: 1700 ng·h/mL
AUC(0-inf) [5]: 1920 ng·h/mL
Cmax (80 mg, oral 80 mg q.d. for 14 days, n = 1): 190 ng/mL
Cmax [4]: 99 ng/mL
Cmax [5]: 114 ng/mL
Tmax at 14 days (80 mg, oral 80 mg q.d. for 14 days): 2.5 h
Tmax (80 mg, single oral dose 80 mg, day 1): 4 h
Tmax (80 mg, single oral dose 80 mg, day –5): 2.5 h
bioavailability (120 mg): 41.1%
AUC(0-t) (120 mg, AUC0-24, oral 120 mg q.d. for 14 days, geometric mean (CV%)): 4040 ng·h/mL
AUC(0-t) (120 mg, AUC0-24, single oral dose 120 mg, day 1, geometric mean (CV%)): 3260 ng·h/mL
AUC(0-t) (120 mg, AUC0-24, single oral dose 120 mg, day –5, geometric mean (CV%)): 2920 ng·h/mL
AUC(0-inf) [6]: 3770 ng·h/mL
AUC(0-inf) [7]: 4070 ng·h/mL
Cmax (120 mg, oral 120 mg q.d. for 14 days, geometric mean (CV%)): 375 ng/mL
Cmax [6]: 344 ng/mL
Cmax [7]: 274 ng/mL
Tmax at 14 days (120 mg, oral 120 mg q.d. for 14 days): 2.5 h
Tmax (120 mg, single oral dose 120 mg, day 1): 4 h
Tmax (120 mg, single oral dose 120 mg, day –5): 4 h
AUC(0-t) (180 mg, AUC0-24, oral 180 mg q.d. for 14 days, geometric mean (CV%)): 7660 ng·h/mL
AUC(0-t) (180 mg, AUC0-24, single oral dose 180 mg, day 1, geometric mean (CV%)): 5920 ng·h/mL
AUC(0-t) (180 mg, AUC0-24, single oral dose 180 mg, day –5, geometric mean (CV%)): 5610 ng·h/mL
AUC(0-inf) [8]: 8410 ng·h/mL
Cmax (180 mg, oral 180 mg q.d. for 14 days, geometric mean (CV%)): 454 ng/mL
Cmax (180 mg, single oral dose 180 mg, day 1, geometric mean (CV%)): 527 ng/mL
Cmax [8]: 410 ng/mL
Tmax at 14 days (180 mg, oral 180 mg q.d. for 14 days): 4 h
Tmax (180 mg, single oral dose 180 mg, day 1): 6 h
Tmax (180 mg, single oral dose 180 mg, day –5): 4 h
AUC(0-t) (240 mg, AUC0-24, oral 240 mg q.d. for 14 days, geometric mean (CV%)): 7560 ng·h/mL
AUC(0-t) (240 mg, AUC0-24, single oral dose 240 mg, day 1, geometric mean (CV%)): 5130 ng·h/mL
AUC(0-t) (240 mg, AUC0-24, single oral dose 240 mg, day –5, geometric mean (CV%)): 5030 ng·h/mL
AUC(0-inf) [9]: 4370 ng·h/mL
AUC(0-inf) [10]: 6990 ng·h/mL
Cmax (240 mg, oral 240 mg q.d. for 14 days, geometric mean (CV%)): 527 ng/mL
Cmax [9]: 493 ng/mL
Cmax [10]: 442 ng/mL
Tmax at 14 days (240 mg, oral 240 mg q.d. for 14 days): 4 h
Tmax (240 mg, single oral dose 240 mg, day 1): 4 h
Tmax (240 mg, single oral dose 240 mg, day –5): 4 h
AUC(0-t) (360 mg, AUC0-24, oral 360 mg q.d. for 14 days, geometric mean (CV%)): 15600 ng·h/mL
AUC(0-t) (360 mg, AUC0-24, single oral dose 360 mg, day 1, geometric mean (CV%)): 8280 ng·h/mL
AUC(0-t) (360 mg, AUC0-24, single oral dose 360 mg, day –5, geometric mean (CV%)): 9170 ng·h/mL
AUC(0-inf) [11]: 9980 ng·h/mL
AUC(0-inf) [12]: 11000 ng·h/mL
Cmax (360 mg, oral 360 mg q.d. for 14 days, geometric mean (CV%)): 1050 ng/mL
Cmax [11]: 697 ng/mL
Cmax [12]: 814 ng/mL
Tmax at 14 days (360 mg, oral 360 mg q.d. for 14 days): 4 h
Tmax (360 mg, single oral dose 360 mg, day 1): 4 h
Tmax (360 mg, single oral dose 360 mg, day –5): 4 h

From PMC5379148, “A phase I study of intravenous and oral rucaparib in combination with chemotherapy in patients with advanced solid tumours” (British Journal of Cancer, 2017)
